In patent publication US12030877B2, “Prostaglandin E synthase inhibitors and methods for utilizing the same” (University of Kentucky Research Foundation, priority 2016, dated 2024):
Like-named read-outs stand apart in the source and are kept apart here.

Assays:
mPGES-1 Mouse enzyme = biological target: T1, mPGES-1 Mouse enzyme (Mus musculus, UniProt Q9JM51); assay: mPGES-1 enzyme activity assay (PGE2 enzyme immunoassay), mouse enzyme; type: biochemical; settings: for IC50: recombinant microsomal enzyme, means ± SD, triplicate; for inhibition at 10 µM: compound at a concentration of 10 μM, read-out: % inhibition of the compound against mPGES-1, Mouse enzyme
T1 construct: made in house; host or cells: FreeStyle 293-F cells, crude microsomal preparation
T1 sequence (Q9JM51 1-153): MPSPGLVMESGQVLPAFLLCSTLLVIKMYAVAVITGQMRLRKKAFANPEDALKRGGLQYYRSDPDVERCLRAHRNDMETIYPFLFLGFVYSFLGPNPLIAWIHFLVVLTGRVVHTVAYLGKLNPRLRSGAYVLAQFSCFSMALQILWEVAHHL
Procedure: (§1) Studies were conducted to characterize the inhibitory activity against recombinant mPGES-1 of the compounds synthesized in accordance with Examples 1-4, and disclosed herein.
(§2) Briefly, FreeStyle 293-F cells were cultured following manufacturer's manual in FreeStyle 293 expression medium on orbit rotate shaker in 8% CO2 incubator at 37° C. Cells were transfected with 1.5 μg/mL of mPGES-1/pcDNA3 construct using FreeStyle Max reagent at a cell density of 1×10^6 for 2 days. Transfected cells were collected, washed, and sonicated in TSES buffer (15 mM Tris-HCl, pH 8.0 plus 0.25 M sucrose, 0.1 mM EDTA and 1 mM DTT) on ice. The broken cells were first centrifuged at 12,500×g for 10 min. The supernatant was further centrifuged at 105,000×g for 1 hr at 4° C. The pellet was washed and homogenized in PBS buffer. The crude microsomal mPGES-1 preparation was aliquoted and stored at −80° C. The crude protein concentration was 8 mg/mL.
(§3) The enzyme activity assays were performed on ice in 1.5 ml microfuge tubes by using the expressed mPGES-1. The reaction mixture contained: 0.2 M Na2HPO4/NaH2PO4, pH 7.2, 10 μL; 0.1 M GSH, 2.5 μL; diluted microsomal enzyme (80 μg/mL), 1 μL; PGH2 (0.31 mM in DMF), 5 μL; 1 μL inhibitor; and H2O in a final reaction volume of 100 μL. PGH2 was stored in dry ice and used to initiate the reaction.
(§4) Compounds were incubated with the enzyme for 15 min at room temperature before the addition of cold PGH2 (1 μM final) to initiate the enzyme reaction. After 30 s, 10 μL of SnCl2 (40 mg/mL) in ethanol was added to stop the reaction. The nonenzymatic conversion of PGH2 to PGE2 was performed in the same buffer devoid of enzyme. The reaction mixture was placed on ice until PGE2 production was determined by the PGE2 enzyme immunoassay as described earlier. IC50 values of the inhibitors were calculated by using the GraphPad Prism 4.0 program. The results are set forth in the tables provided in Examples 7-10.

mPGES-1 = biological target: T2, mPGES-1 (Homo sapiens, UniProt O14684); assay: mPGES-1 enzyme activity assay (PGE2 enzyme immunoassay), human enzyme; type: biochemical; set-up: made in house; host or cells: FreeStyle 293-F cells, crude microsomal preparation; settings: recombinant microsomal enzyme, means ± SD, triplicate
T2 sequence (O14684 1-152): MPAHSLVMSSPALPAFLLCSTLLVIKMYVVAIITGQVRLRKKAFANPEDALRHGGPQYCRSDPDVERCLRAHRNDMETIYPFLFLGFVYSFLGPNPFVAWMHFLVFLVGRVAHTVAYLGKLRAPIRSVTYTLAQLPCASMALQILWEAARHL
Procedure: as §1, §2, §3, §4

[1] = IC50 against mPGES-1, Mouse enzyme
[2] = IC50 against mPGES-1, Human enzyme
[3] = read-out: IC50 against mPGES-1, Human enzyme
[4] = read-out: IC50 against mPGES-1, Mouse enzyme

SMILES | IC50 (mPGES-1 Mouse enzyme; [1]) [nM] | IC50 (mPGES-1; [2]) [nM] | inhibition at 10 µM (mPGES-1 Mouse enzyme) [%] | IC50 (mPGES-1; [3]) [nM] | IC50 (mPGES-1 Mouse enzyme; [4]) [nM]
CCOc1cc(C=C2C(=O)NC(=O)NC2=O)ccc1OCCCCC1CCCCC1 [Compound I-07] | 2410 ± 339 | 186 ± 26 | – | – | –
COc1cc(C=C2C(=O)NC(=O)NC2=O)cc(Cl)c1OCCCCC1CCCCC1 [Compound I-09] | 360 ± 56 | 22 ± 7 | – | – | –
COc1cc(C=C2C(=O)NC(=O)NC2=O)cc(Br)c1OCCCCC1CCCCC1 [Compound I-10] | 292 ± 47 | 69 ± 16 | – | – | –
COc1cc(C=C2C(=O)NC(=O)NC2=O)cc(I)c1OCCCCC1CCCCC1 [Compound I-11] | 359 ± 50 | 54 ± 12 | – | – | –
COc1ccc(C=C2C(=O)NC(=O)NC2=O)cc1OCCCCC1CCCCC1 [Compound I-12] | 727 ± 109 | 152 ± 53 | – | – | –
O=C1NC(=O)C(=Cc2cc(Cl)ccc2OCCCCC2CCCCC2)C(=O)N1 [Compound I-13] | – | – | 28 | 87 ± 27 | –
O=C1NC(=O)C(=Cc2cc(Br)ccc2OCCCCC2CCCCC2)C(=O)N1 [Compound I-14] | – | 96 ± 14 | 38 | – | –
O=C1NC(=O)C(=Cc2cc(I)ccc2OCCCCC2CCCCC2)C(=O)N1 [Compound I-15] | 12100 ± 1960 | 135 ± 18 | – | – | –
O=C1NC(=O)C(=Cc2c(OCCCCC3CCCCC3)ccc3ccccc23)C(=O)N1 [Compound I-16] | 7040 ± 1850 | 154 ± 18 | – | – | –
O=C1NC(=O)C(=Cc2ccc(OCCCCC3CCCCC3)c3ccccc23)C(=O)N1 [Compound I-17] | 3700 ± 562 | 171 ± 34 | – | – | –
CN1C(=O)C(=Cc2ccc(OCCCCC3CCCCC3)c(Cl)c2)C(=O)N(C)C1=O [Compound I-18] | – | 272 ± 30 | 8 | – | –
CN1C(=O)C(=Cc2ccc(OCCCCC3CCCCC3)c(Br)c2)C(=O)N(C)C1=O [Compound I-19] | – | 427 ± 55 | 24 | – | –
CN1C(=O)C(=Cc2ccc(OCCCCC3CCCCC3)c([N+](=O)[O-])c2)C(=O)N(C)C1=O [Compound I-20] | – | 561 ± 55 | 15 | – | –
O=C1NC(=O)C(=Cc2ccc(OCCCCC3CCCCC3)c(Cl)c2)C(=O)N1 [Compound I-21] | 415 ± 120 | 28 ± 3 | – | – | –
O=C1NC(=O)C(=Cc2ccc(OCCCC3CCCCC3)c([N+](=O)[O-])c2)C(=O)N1 [Compound I-26] | 373 ± 51 | 156 ± 30 | – | – | –
CN1C(=O)C(=Cc2ccc(OCCCC3CCCCC3)c(Cl)c2)C(=O)N(C)C1=O [Compound I-27] | – | 240 ± 20 | 29 | – | –
CN1C(=O)C(=Cc2ccc(OCCCC3CCCCC3)c(Br)c2)C(=O)N(C)C1=O [Compound I-28] | – | 127 ± 14 | 30 | – | –
CN1C(=O)C(=Cc2ccc(OCCCC3CCCCC3)c([N+](=O)[O-])c2)C(=O)N(C)C1=O [Compound I-29] | – | 188 ± 21 | 41 | – | –
O=C1NC(=O)C(=Cc2ccc(OCCCC3CCCCC3)c([N+](=O)[O-])c2)C(=O)N1 [Compound I-32] | 428 ± 58 | 73 ± 12 | – | – | –
O=C1NC(=O)C(=Cc2ccc(OCCCCc3ccccc3)c(Cl)c2)C(=O)N1 [Compound I-33] | 2790 ± 525 | 73 ± 10 | – | – | –
O=C1NC(=O)C(=Cc2ccc(OCCCOc3ccccc3)c(Cl)c2)C(=O)N1 [Compound I-34] | 8130 ± 1010 | 349 ± 40 | – | – | –
O=C1NC(=O)C(=Cc2ccc(OCCCOc3ccc(-c4ccccc4)cc3)c(Cl)c2)C(=O)N1 [Compound I-35] | – | 337 ± 34 | 17 | – | –
O=C1NC(=O)C(=Cc2ccc(OCCCOc3ccc4ccccc4c3)c(Cl)c2)C(=O)N1 [Compound I-36] | – | 365 ± 59 | 19 | – | –
O=C1NC(=O)C(=Cc2ccc(OCCC3CCCCC3)c([N+](=O)[O-])c2)C(=O)N1 [Compound I-37] | 2390 ± 425 | 517 ± 68 | – | – | –
O=C1NC(=O)C(=Cc2ccc(OCC3CCCCC3)c([N+](=O)[O-])c2)C(=O)N1 [Compound I-38] | – | 1110 ± 104 | 42 | – | –
CCCCCOc1ccc(C=C2C(=O)NC(=O)NC2=O)cc1[N+](=O)[O-] [Compound I-39] | 6310 ± 1140 | 460 ± 64 | – | – | –
CCCCCCCOc1ccc(C=C2C(=O)NC(=O)NC2=O)cc1[N+](=O)[O-] [Compound I-40] | 734 ± 119 | 232 ± 54 | – | – | –

SMILES | IC50 (mPGES-1 Mouse enzyme; [1]) [nM] | IC50 (mPGES-1; [2]) [nM] | inhibition at 10 µM (mPGES-1 Mouse enzyme) [%] | IC50 (mPGES-1; [3]) [nM] | IC50 (mPGES-1 Mouse enzyme; [4]) [nM]
CCCCCCCCCOc1ccc(C=C2C(=O)NC(=O)NC2=O)cc1[N+](=O)[O-] [Compound I-41] | 1300 ± 163 | 188 ± 43 | – | – | –
O=C1NC(=O)C(Cc2ccc(OCCCCC3CCCCC3)c(Cl)c2)C(=O)N1 [Compound I-42] | 1330 ± 151 | 133 ± 20 | – | – | –
O=C1NC(=O)C(Cc2ccc(OCCCCC3CCCCC3)c(Br)c2)C(=O)N1 [Compound I-43] | 1090 ± 211 | 97 ± 13 | – | – | –
O=C1NC(=O)C(Cc2ccc(OCCCCC3CCCCC3)c([N+](=O)[O-])c2)C(=O)N1 [Compound I-44] | 3350 ± 560 | 136 ± 23 | – | – | –
CCCCCCOc1ccc(C=C(C#N)C#N)cc1[N+](=O)[O-] [Compound V-04] | – | – | – | 285 ± 40 | 754 ± 73
CCCCCCCOc1ccc(C=C(C#N)C#N)cc1[N+](=O)[O-] [Compound V-05] | – | – | – | 135 ± 16 | 776 ± 217
CCCCCCCCOc1ccc(C=C(C#N)C#N)cc1[N+](=O)[O-] [Compound V-06] | – | – | – | 89 ± 12 | 716 ± 120
CCCCCCCOc1ccc(C=C(C#N)C#N)cc1 [Compound V-10] | – | – | – | 136 ± 13 | 1390 ± 255
CCCCCCOc1c(Br)cc(C=C(C#N)C#N)cc1OC [Compound V-13] | – | – | – | 181 ± 33 | 1630 ± 250
CCCCCCCOc1c(Br)cc(C=C(C#N)C#N)cc1OC [Compound V-15] | – | – | – | 83 ± 14 | 357 ± 52
CCCCCCCCOc1c(Br)cc(C=C(C#N)C#N)cc1OC [Compound V-18] | – | – | – | 74 ± 8 | 572 ± 83
CCCCCCCCCCCCCCCCCCOc1c(Br)cc(C=C(C#N)C#N)cc1OC [Compound V-20] | – | – | – | 50 ± 9 | 270 ± 64
CCCCOc1ccc(C=C(C#N)C#N)cc1OC [Compound V-22] | – | – | – | 348 ± 100 | 1770 ± 241
CCCCCCCCCCOc1ccc(/C=C(\C#N)C(=O)O)cc1OC [Compound V-27] | – | – | – | 51 ± 10 | 390 ± 84
CCCCCCCOc1ccc(C=C(C#N)C#N)cc1OC [Compound V-35] | – | – | – | 256 ± 33 | 7290 ± 2550
O=C(O)CN1C(=O)S/C(=C2\C(=O)N(Cc3ccccc3)c3ccccc32)C1=O [II-01] | – | – | 10 | 817 ± 79 | –
O=C(O)CN1C(=O)S/C(=C2\C(=O)N(Cc3ccc(Cl)cc3)c3ccccc32)C1=O [II-02] | – | – | 45 | 614 ± 63 | –
O=C(O)CN1C(=O)S/C(=C2\C(=O)N(CCc3ccccc3)c3ccccc32)C1=O [II-03] | – | – | 62 | 348 ± 44 | –
O=C(O)CN1C(=O)S/C(=C2\C(=O)N(CCCc3ccccc3)c3ccccc32)C1=O [II-04] | – | – | – | 2400 ± 132 | 747 ± 163
O=C(O)CN1C(=O)S/C(=C2\C(=O)N(CCCCc3ccccc3)c3ccccc32)C1=O [II-05] | – | – | 61 | 963 ± 87 | –
O=C(O)CN1C(=O)S/C(=C2\C(=O)N(CC3CCCCC3)c3ccccc32)C1=O [II-06] | – | – | – | 1270 ± 104 | 2730 ± 422
O=C(O)CN1C(=O)S/C(=C2\C(=O)N(CCC3CCCCC3)c3ccccc32)C1=O [II-07] | – | – | 39 | 494 ± 32 | –
O=C(O)CN1C(=O)S/C(=C2\C(=O)N(CCCC3CCCCC3)c3ccccc32)C1=O [II-08] | – | – | – | 253 ± 30 | 1520 ± 317
O=C(O)CN1C(=O)S/C(=C2\C(=O)N(CCCCC3CCCCC3)c3ccccc32)C1=O [II-09] | – | – | – | 499 ± 108 | 947 ± 183
O=C(O)CN1C(=O)S/C(=C2\C(=O)N(CCCOc3ccccc3)c3ccccc32)C1=O [II-10] | – | – | 41 | 805 ± 100 | –
O=C(O)CN1C(=O)S/C(=C2\C(=O)N(CCCOc3ccc4ccccc4c3)c3ccccc32)C1=O [II-11] | – | – | – | 1680 ± 168 | 1020 ± 131
